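Grown in 96-well plates, cells were treated for 48 hours with each compound at five concentrations. Insufficient inhibition: endpoint recorded as highest concentration tested. Abbreviation: GI50, concentration required for 50% inhibition of growth.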 Active and inactive are the calls of the source. No stated cut-off is given here; in the data, active = GI50 up to about 1.1 µM and inactive = higher.
Experiments:
Test in all cases: growth of human tumour cells (NCI), 48 h
[1] = system: SNB-75
[2] = system: MDA-MB-435
[3] = system: OVCAR-3
[4] = system: PC-3
[5] = system: NCI-H23
[6] = system: BT-549
[7] = system: HL-60
[8] = system: SN12C
[9] = system: NCI/ADR-RES
[10] = system: Hs-578T
[11] = system: TK-10
[12] = system: KM12
[13] = system: SK-OV-3
[14] = system: Malme-3M
[15] = system: CAKI-1
[16] = system: MOLT-4
[17] = system: OVCAR-8
[18] = system: MCF7
[19] = system: HOP-62
[20] = system: EKVX
[21] = system: LOX IMVI
[22] = system: UACC-62
[23] = system: A498
[24] = system: CCRF-CEM
[25] = system: NCI-H522
[26] = system: UO-31
[27] = system: M14
[28] = system: SF-539
[29] = system: SW-620
[30] = system: MDA-N
[31] = system: 786-0
[32] = system: HT-29
[33] = system: RPMI-8226
[34] = system: MDA-MB-231
[35] = system: COLO 205
[36] = system: A549
[37] = system: NCI-H226
[38] = system: NCI-H460
[39] = system: HCT-15
[40] = system: SK-MEL-28
[41] = system: RXF 393
[42] = system: SF-268
[43] = system: SK-MEL-2
[44] = system: U-251
[45] = system: HOP-92
[46] = system: ACHN
[47] = system: HCT-116
[48] = system: OVCAR-4
[49] = system: SNB-19
[50] = system: IGROV-1
[51] = system: K562
[52] = system: UACC-257
[53] = system: T47D
[54] = system: OVCAR-5
[55] = system: SF-295
[56] = system: DU-145
[57] = system: SK-MEL-5
[58] = system: SR
[59] = system: HCC 2998

Measured: GI50

C#CCn1c(=O)c(I)cn(/C(=C/C(=O)OCC)C(=O)OCC)c1=O
inactive: [1] 17.2 µM | [2] 7.6 µM | [3] 1.78 µM | [4] 5.06 µM | [5] 15.3 µM | [6] 11.5 µM | [7] 1.64 µM | [8] 15.9 µM | [9] 18.9 µM | [10] 15 µM | [12] 18 µM | [13] 17.9 µM | [14] 1.52 µM | [15] 1.86 µM | [17] 3.56 µM | [18] 2.12 µM | [19] 17.5 µM | [20] 2.94 µM | [21] 4.95 µM | [22] 5.42 µM | [23] 19.1 µM | [24] 3.53 µM | [26] 1.53 µM | [27] 1.78 µM | [28] 7.21 µM | [29] 1.18 µM | [30] 3.37 µM | [31] 1.63 µM | [32] 12.6 µM | [34] 15.2 µM | [36] 18 µM | [37] 25.7 µM | [38] 23.4 µM | [40] 8 µM | [41] 3.61 µM | [42] 9.44 µM | [43] 15.5 µM | [44] 16.6 µM | [45] 1.75 µM | [46] 1.67 µM | [47] 1.85 µM | [48] 8.22 µM | [49] 18.3 µM | [50] 15.7 µM | [52] 3.06 µM | [54] 16.2 µM | [55] 39.7 µM | [56] 10 µM
2.74 µM: [39]
active: [11] 0.3 µM | [16] < 0.0195 µM | [25] 0.649 µM | [33] 0.746 µM | [35] 0.667 µM | [51] 0.659 µM | [53] 0.818 µM

COC(=O)c1ccc(S)c(S(=O)(=O)Nc2nc(N)n[nH]2)c1
> 100 µM: [39]
inactive: [2] > 100 µM | [3] > 100 µM | [4] > 100 µM | [5] > 100 µM | [6] > 100 µM | [7] > 100 µM | [8] > 100 µM | [9] > 100 µM | [10] > 100 µM | [11] > 100 µM | [12] > 100 µM | [14] > 100 µM | [15] > 100 µM | [16] > 100 µM | [17] > 100 µM | [20] > 100 µM | [21] > 100 µM | [22] > 100 µM | [23] > 100 µM | [24] > 100 µM | [25] > 100 µM | [26] > 100 µM | [27] > 100 µM | [28] > 100 µM | [29] > 100 µM | [30] > 100 µM | [31] > 100 µM | [57] > 100 µM | [32] > 100 µM | [33] > 100 µM | [34] > 100 µM | [35] > 100 µM | [36] > 100 µM | [38] > 100 µM | [40] > 100 µM | [43] > 100 µM | [44] > 100 µM | [45] > 100 µM | [46] > 100 µM | [47] > 100 µM | [58] > 100 µM | [48] > 100 µM | [49] > 100 µM | [50] > 100 µM | [51] > 100 µM | [52] > 100 µM | [53] > 100 µM | [54] > 100 µM | [55] > 100 µM | [56] > 100 µM

Brc1sc(Br)c2c1[C@H](Br)C[C@@H]2Br
28.4 µM: [39]
inactive: [1] 30.1 µM | [2] 35.5 µM | [3] 41.9 µM | [5] 24.3 µM | [6] 29 µM | [7] 30.7 µM | [8] 31.1 µM | [9] 23 µM | [10] 26.3 µM | [11] > 100 µM | [12] 44.9 µM | [13] 59.8 µM | [14] 23.9 µM | [15] 33.8 µM | [16] 8.97 µM | [17] 21.6 µM | [18] 29.6 µM | [19] 64.9 µM | [20] > 100 µM | [21] 17.4 µM | [22] 31.3 µM | [23] 40.3 µM | [24] 31.1 µM | [25] 16.3 µM | [26] 19.6 µM | [27] 29.2 µM | [28] 19.1 µM | [29] 38.7 µM | [30] 38.1 µM | [31] 29.9 µM | [57] 57.1 µM | [32] > 100 µM | [34] 31.1 µM | [35] 53.6 µM | [36] 30 µM | [37] 23.1 µM | [38] 27.5 µM | [40] 28 µM | [42] 20.7 µM | [43] 24.6 µM | [44] 36.6 µM | [45] 21.5 µM | [46] 32.8 µM | [47] 37.2 µM | [58] 22.4 µM | [48] 23.5 µM | [50] 26.9 µM | [51] 39.4 µM | [52] 40.2 µM | [53] 26.1 µM | [54] > 100 µM | [55] > 10 µM | [56] 24.3 µM
active: [41] 0.0689 µM

O=C1NC(=O)/C(=C/c2ccc(S(=O)(=O)N/N=C/c3ccccc3)cc2)N1
> 100 µM: [39]
inactive: [1] > 100 µM | [2] > 100 µM | [3] > 100 µM | [59] > 100 µM | [4] > 100 µM | [5] > 100 µM | [6] > 100 µM | [7] > 100 µM | [8] > 100 µM | [9] > 100 µM | [10] > 100 µM | [11] > 100 µM | [12] > 100 µM | [13] > 100 µM | [14] > 100 µM | [15] > 100 µM | [16] > 100 µM | [17] > 100 µM | [18] > 100 µM | [19] > 100 µM | [20] > 100 µM | [21] > 100 µM | [22] > 100 µM | [23] 2.75 µM | [24] > 100 µM | [26] > 100 µM | [27] > 100 µM | [29] > 100 µM | [30] > 100 µM | [31] > 100 µM | [57] > 100 µM | [32] > 100 µM | [33] > 100 µM | [34] > 100 µM | [35] > 100 µM | [36] > 100 µM | [37] > 100 µM | [40] > 100 µM | [41] > 100 µM | [42] > 100 µM | [43] > 100 µM | [44] > 100 µM | [45] > 100 µM | [46] > 100 µM | [47] > 100 µM | [48] > 100 µM | [49] > 100 µM | [50] > 100 µM | [51] > 100 µM | [52] > 100 µM | [53] > 100 µM | [54] > 100 µM | [55] > 100 µM | [56] > 100 µM

C/C=C1/C[C@@H](C)[C@@](C)(O)C(=O)OCC2=CC[N+]3([O-])CC[C@@H](OC1=O)[C@@H]23 (some centres not stated) [SENECIONINE N-OXIDE]
inactive: [1] > 100 µM | [2] > 100 µM | [3] > 100 µM | [59] > 100 µM | [4] > 100 µM | [5] > 100 µM | [6] > 100 µM | [7] > 100 µM | [8] > 100 µM | [9] > 100 µM | [10] > 100 µM | [11] > 100 µM | [12] > 100 µM | [13] > 100 µM | [14] 94.6 µM | [15] > 100 µM | [16] > 100 µM | [17] > 100 µM | [18] > 100 µM | [20] > 100 µM | [21] > 100 µM | [22] > 100 µM | [23] > 100 µM | [24] > 100 µM | [25] > 100 µM | [26] > 100 µM | [27] > 100 µM | [28] > 100 µM | [29] > 100 µM | [30] > 100 µM | [31] > 100 µM | [57] > 100 µM | [32] > 100 µM | [34] > 100 µM | [35] > 100 µM | [36] > 100 µM | [37] > 100 µM | [38] > 100 µM | [40] > 100 µM | [42] > 100 µM | [43] > 100 µM | [44] > 100 µM | [45] > 100 µM | [46] > 100 µM | [47] > 100 µM | [48] > 100 µM | [49] > 100 µM | [50] > 100 µM | [52] > 100 µM | [53] > 100 µM | [54] > 100 µM | [55] > 100 µM | [56] > 100 µM
active: [51] 0.0482 µM
> 100 µM: [39]

Reference: ChEMBL document CHEMBL1201862, “PubChem BioAssay data set” (2004)
